Measurements from PubChem BioAssay (NCI).
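Five compound concentrations were applied to cells in 96-well plates for 48 hours; endpoints were derived by simple linear interpolation of the resulting dose-response curve. The concentration for full growth arrest is given as TGI.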

Key:
Assay in all cases: growth of human tumour cells (NCI), 48 h
[1] = test system: CAKI-1 renal
[2] = test system: MDA-MB-231 breast
[3] = test system: PC-3 prostate
[4] = test system: UACC-62 melanoma
[5] = test system: IGROV1 ovarian
[6] = test system: K-562 leukemia
[7] = test system: SK-MEL-28 melanoma
[8] = test system: SK-OV-3 ovarian
[9] = test system: OVCAR-3 ovarian
[10] = test system: BT-549 breast
[11] = test system: HCT-15 colon
[12] = test system: HCT-116 colon
[13] = test system: A498 renal
[14] = test system: M14 melanoma
[15] = test system: T-47D breast
[16] = test system: SF-268 CNS
[17] = test system: NCI-H460 lung
[18] = test system: SNB-75 CNS
[19] = test system: UACC-257 melanoma
[20] = test system: U251 CNS
[21] = test system: SN12C renal
[22] = test system: HS 578T breast
[23] = test system: HOP-92 NSCLC
[24] = test system: SK-MEL-5 melanoma
[25] = test system: HT29 colon
[26] = test system: NCI-H522 lung
[27] = test system: NCI-H23 lung
[28] = test system: SF-295 CNS
[29] = test system: LOX IMVI melanoma
[30] = test system: SK-MEL-2 melanoma
[31] = test system: MALME-3M melanoma
[32] = test system: SNB-19 CNS
[33] = test system: EKVX NSCLC
[34] = test system: KM12 colon
[35] = test system: TK-10 renal
[36] = test system: MDA-MB-435
[37] = test system: SR leukemia
[38] = test system: MDA-N
[39] = test system: OVCAR-4 ovarian
[40] = test system: 786-0 renal
[41] = test system: SF-539 CNS
[42] = test system: RPMI-8226 leukemia
[43] = test system: CCRF-CEM leukemia
[44] = test system: OVCAR-5 ovarian
[45] = test system: COLO 205 colon
[46] = test system: HCC-2998 colon
[47] = test system: MOLT-4 leukemia
[48] = test system: A549 NSCLC
[49] = test system: OVCAR-8 ovarian
[50] = test system: ACHN renal
[51] = test system: NCI-H226 lung
[52] = test system: MCF7 breast
[53] = test system: UO-31 renal
[54] = test system: SW-620 colon
[55] = test system: HOP-62 NSCLC
[56] = test system: DU-145 prostate
[57] = test system: RXF 393 renal
[58] = test system: NCI/ADR-RES ovarian

Cc1cccc(/C=N/NC(=S)N(C)CCc2ccccn2)n1
TGI [1]: 32.7 µM | TGI [2]: > 100 µM | TGI [3]: > 100 µM | TGI [4]: 1.02 µM | TGI [5]: 24.6 µM | TGI [6]: > 45.6 µM | TGI [7]: > 100 µM | TGI [8]: > 100 µM | TGI [9]: > 100 µM | TGI [10]: > 100 µM | TGI [11]: > 100 µM | TGI [12]: > 100 µM | TGI [13]: 1.03 µM | TGI [14]: 2.38 µM | TGI [15]: > 100 µM | TGI [16]: > 100 µM | TGI [17]: > 52.5 µM | TGI [18]: 21.9 µM | TGI [19]: 45.6 µM | TGI [20]: > 100 µM | TGI [21]: > 100 µM | TGI [22]: > 100 µM | TGI [23]: > 83.9 µM | TGI [24]: 9.4 µM | TGI [25]: > 100 µM | TGI [26]: > 100 µM | TGI [27]: > 100 µM | TGI [28]: > 100 µM | TGI [29]: > 100 µM | TGI [30]: > 100 µM | TGI [31]: > 54 µM | TGI [32]: > 100 µM | TGI [33]: > 100 µM | TGI [34]: > 100 µM | TGI [35]: > 100 µM | TGI [36]: > 100 µM | TGI [37]: > 100 µM | TGI [38]: > 100 µM | TGI [39]: > 100 µM | TGI [40]: > 100 µM | TGI [41]: 6.8 µM | TGI [42]: 0.388 µM | TGI [43]: 0.0974 µM | TGI [44]: > 100 µM | TGI [45]: > 100 µM | TGI [46]: > 100 µM | TGI [47]: > 100 µM | TGI [48]: > 100 µM | TGI [49]: > 59 µM | TGI [50]: 1.15 µM | TGI [51]: 19.6 µM | TGI [52]: > 100 µM | TGI [53]: 2.36 µM | TGI [54]: > 100 µM

Clc1ccc(-c2nc3ccc4ccccc4c3c3c2CCCC3)cc1
TGI [1]: > 100 µM | TGI [2]: > 100 µM | TGI [4]: > 100 µM | TGI [5]: > 100 µM | TGI [6]: > 100 µM | TGI [7]: > 100 µM | TGI [8]: > 100 µM | TGI [9]: > 100 µM | TGI [10]: > 100 µM | TGI [11]: > 100 µM | TGI [12]: > 100 µM | TGI [13]: > 100 µM | TGI [14]: > 100 µM | TGI [16]: > 100 µM | TGI [55]: > 100 µM | TGI [17]: > 100 µM | TGI [56]: > 100 µM | TGI [18]: > 100 µM | TGI [19]: > 100 µM | TGI [20]: > 100 µM | TGI [22]: > 100 µM | TGI [24]: > 100 µM | TGI [25]: > 100 µM | TGI [26]: > 100 µM | TGI [27]: > 100 µM | TGI [28]: > 100 µM | TGI [30]: > 100 µM | TGI [31]: > 100 µM | TGI [57]: > 100 µM | TGI [32]: > 100 µM | TGI [33]: > 100 µM | TGI [34]: > 100 µM | TGI [35]: > 100 µM | TGI [36]: > 100 µM | TGI [38]: > 100 µM | TGI [40]: > 100 µM | TGI [41]: > 100 µM | TGI [42]: > 100 µM | TGI [43]: > 100 µM | TGI [44]: > 100 µM | TGI [45]: > 100 µM | TGI [46]: > 100 µM | TGI [47]: > 100 µM | TGI [48]: > 100 µM | TGI [49]: > 100 µM | TGI [51]: > 100 µM | TGI [52]: > 100 µM | TGI [58]: > 100 µM | TGI [53]: > 100 µM | TGI [54]: > 100 µM
